Results from patent publication US4774251A, “Method of inhibiting aromatase” (Eli Lilly and Company, priority 1984, dated 1988).
pEC50: −log10 of the molar value. Like-named read-outs stand apart in the source and are kept apart here. One block for each molecule: values may come before it.

Experiments:
aromatase = target: T1, aromatase (Rattus norvegicus, UniProt P22443); experiment: Aromatase inhibition in the rat ovarian microsome assay; format: biochemical
T1 construct: ovarian microsomes are obtained from rats treated with pregnant mares serum gonadotropin; from tissue; host or cells: ovarian microsomes from rats treated with pregnant mares serum gonadotropin
T1 sequence (P22443 1-508): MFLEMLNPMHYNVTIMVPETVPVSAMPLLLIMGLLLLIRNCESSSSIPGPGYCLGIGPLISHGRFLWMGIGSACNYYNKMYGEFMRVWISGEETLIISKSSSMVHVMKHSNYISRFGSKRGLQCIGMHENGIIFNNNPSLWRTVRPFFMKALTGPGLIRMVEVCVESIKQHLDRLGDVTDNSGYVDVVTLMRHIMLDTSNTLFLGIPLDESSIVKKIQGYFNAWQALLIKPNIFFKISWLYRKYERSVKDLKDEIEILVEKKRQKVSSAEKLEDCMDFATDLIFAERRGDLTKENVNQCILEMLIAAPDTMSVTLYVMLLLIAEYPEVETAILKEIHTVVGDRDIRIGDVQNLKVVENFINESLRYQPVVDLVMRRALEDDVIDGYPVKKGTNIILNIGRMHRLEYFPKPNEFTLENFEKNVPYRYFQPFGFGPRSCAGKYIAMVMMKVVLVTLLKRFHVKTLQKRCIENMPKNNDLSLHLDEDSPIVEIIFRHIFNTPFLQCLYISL
Procedure: In this test system, ovarian microsomes are obtained from rats treated with pregnant mares serum gonadotropin. Test compounds are added to reaction vials containing 0.1 μM 4-androstene-3,17-dione, 100,000 dpm 1,2[^3 H]-androstenedione, the microsomes and a NADPH generating system. The concentrations of the inhibitors tested ranged between 0.005 and 10 μM.

[1] = tested on: uterus (weight stimulated by estrogens produced by aromatization); experiment: Estrogen synthesis inhibition in rats: uterine weight after testosterone propionate; format: in vivo, rat (immature female Wistar); details: 7 days, testosterone-treated control: Test I 180.3, Test II 210.4, corn oil control: 66.7, 101.4
Procedure: Immature female Wistar rats (45-55 grams) were divided into control and test groups of 4-8 animals each. Test compounds were administered for seven days as a component of the diet. Control animals received diet without the test compound. Beginning on the fourth day of the test, all animals treated with the test compound and one half of the control animals were given a subcutaneous injection of 1.0 mg of testosterone propionate in corn oil. The remaining control animals received only an equivalent volume of corn oil. On the seventh day of the test, rats treated with testosterone propionate were injected subcutaneously with 100 μCi of [^3 H]-testosterone in 50 μl of 3:1 (v/v) saline-ethanol.
After two hours, the animals were killed by decapitation. Uteri were isolated, trimmed of extraneous connective tissue, and weighted. […] In the control animals treated with testosterone propionate, estrogens produced by aromatization stimulated the uterus resulting in an increase in weight.

[2] = tested on: estrogen synthesis (ovarian estradiol, estrone, estriol); experiment: Estrogen synthesis inhibition in rats: ovarian steroid concentrations after [3H]-testosterone; format: in vivo, rat (immature female Wistar); details: 7 days, ovary; for Mean Steroid Concentration, estriol: testosterone-treated control: Test I 0.41, Test II 0.17; for Mean Steroid Concentration, estrone: testosterone-treated control: Test I 0.88, Test II 0.41; for Mean Steroid Concentration, estradiol: testosterone-treated control: Test I 2.29, Test II 0.78
Procedure: The ovarian steroids were extracted with 1.5 ml of 9:1 (v/v) toluene/ethanol to which had been added 25 to 100 mcg each of unlabelled estradiol, estriol, and estrone, and approximately 1000 dpm of [^14 C]-estradiol. The samples were vortexed, centrifuged at 500×g for 10 minutes, and the organic phase was transferred to a conical vial. Two additional extractions were performed on the residue in the same way. The pooled organic extract were evaporated for subsequent thin-layer chromatography.
The organic residue from each above extraction was redissolved in 9:1 (v/v) dichloromethane/methanol. The solution of each sample was applied to separate silica gel thin layer chromatography plates which contained a fluorescent indicator. The plates were developed in the first dimension with 160:38:1.5:0.5 (v/v/v/v) dichloromethane/ethyl acetate/methanol/acetic acid to within 3 cm of the top of the plate. After air-drying, the plate was developed in the second dimension with 180:19:1 (v/v/v) dichloromethane/methanol/ammonium hydroxide.
The spots were scraped from the plate using a glass wool plugged Pasteur pipet attached to a vacuum line. The steroids were eluted directly into scintillation vials by the addition of 0.2 ml of dichloromethane followed by two washes each of 2.0 ml of methanol. The organic solvent was evaporated and 10.0 ml of scintillation fluid (Beckman Ready Solv-NA) was added to the vials. Samples were analyzed by liquid scintillation spectrometry. Corrections were made based on the recoveries of the [^14 C]-steroid. Steroid concentrations are expressed as femtomoles per milligram protein.

[3] = rat ovarian microsomes, substrate 4-androstene-3,17-dione 0.1 μM, [3H]-H2O release
[4] = 30 ppm in feed (approx. 3 mg/kg/day)
[5] = 300 ppm in feed (approx. 30 mg/kg/day)

SMILES: C=CCN(Cc1cccnc1)c1ccc(Cl)cc1Cl [N--(2,4-dichlorophenyl)-N--(2-propenyl)-3-pyridinemethanamine]
pEC50 (aromatase; [3]): 6.12

SMILES: C#CCN(Cc1cccnc1)c1ccc(Cl)cc1Cl [N--(2,4-dichlorophenyl)-N--(2-propynyl)-3-pyridinemethanamine]
pEC50 (aromatase): 6.78

SMILES: CCCCCCN(Cc1cccnc1)c1ccc(Cl)cc1Cl [N--(2,4-dichlorophenyl)-N--hexyl-3-pyridinemethanamine]
pEC50 (aromatase): 5.92

SMILES: CC=CCN(Cc1cccnc1)c1ccc(Cl)cc1Cl [N--(2-butenyl)-N--(2,4-dichlorophenyl)-3-pyridinemethanamine]
pEC50 (aromatase): 6.44

SMILES: Fc1ccc(C(Nc2ccccc2Cl)c2cccnc2)cc1 (stereo not drawn) [N--(2-chlorophenyl)-α-(4-fluorophenyl)-3-pyridinemethanamine]
Mean Uterine Weight [1, 4]: 154.3 mg
Mean Uterine Weight [1, 5]: 157.4 mg
Mean Steroid Concentration, estriol [2, 4]: 0.51 femtomoles per milligram of protein
Mean Steroid Concentration, estrone [2, 4]: 0.47 femtomoles per milligram of protein
Mean Steroid Concentration, estradiol [2, 4]: 2.67 femtomoles per milligram of protein
Mean Steroid Concentration, estriol [2, 5]: 0.37 femtomoles per milligram of protein
Mean Steroid Concentration, estrone [2, 5]: 0.31 femtomoles per milligram of protein
Mean Steroid Concentration, estradiol [2, 5]: 1.64 femtomoles per milligram of protein
pEC50 (aromatase; [3]): 7.10

SMILES: CC(c1cccnc1)N(Cc1ccccc1)c1ccc(Cl)cc1 (stereo not drawn) [N--(4-chlorophenyl)-α-methyl-N--benzyl-3-pyridinemethanamine]
pEC50 (aromatase; [3]): 5.92

SMILES: CCCCN(c1ccc(Cl)cc1)C(c1ccccc1)c1cccnc1 (stereo not drawn) [N--butyl-N--(4-chlorophenyl)-α-phenyl-3-pyridinemethanamine]
pEC50 (aromatase; [3]): 6.54

Further lines, with some results ahead:

pEC50 (aromatase; [3]): 6.51
SMILES: Clc1ccc(N(Cc2ccccc2)Cc2cccnc2)c(Cl)c1 [N--(2,4-dichlorophenyl)-N--benzyl-3-pyridinemethanamine]

pEC50 (aromatase; [3]): > 7.30
SMILES: Fc1ccc(N(Cc2ccccc2)Cc2cccnc2)c(F)c1 [N--(2,4-difluorophenyl)-N--benzyl-3-pyridinemethanamine]
Mean Uterine Weight [1, 4]: 196.3 mg
Mean Uterine Weight [1, 5]: 171.4 mg
Mean Steroid Concentration, estriol [2, 4]: 0.44 femtomoles per milligram of protein
Mean Steroid Concentration, estrone [2, 4]: 0.00 femtomoles per milligram of protein
Mean Steroid Concentration, estradiol [2, 4]: 0.84 femtomoles per milligram of protein
Mean Steroid Concentration, estriol [2, 5]: 0.32 femtomoles per milligram of protein
Mean Steroid Concentration, estrone [2, 5]: 0.00 femtomoles per milligram of protein
Mean Steroid Concentration, estradiol [2, 5]: 0.44 femtomoles per milligram of protein

pEC50 (aromatase; [3]): 5.70
SMILES: CC(c1cccnc1)N(C)c1ccc(Cl)cc1 (stereo not drawn) [N--(4-chlorophenyl)-N,α-dimethyl-3-pyridinemethanamine]

pEC50 (aromatase; [3]): 5.60
SMILES: CN(c1ccc(Cl)cc1)C(c1ccccc1)c1cccnc1 (stereo not drawn) [N--(4-chlorophenyl)-N--methyl-α-phenyl-3-pyridinemethanamine]

pEC50 (aromatase; [3]): 6.20
SMILES: CCCCN(Cc1cccnc1)c1ccc(C)cc1C [N--butyl-N--(2,4-dimethylphenyl)-3-pyridinemethanamine]

pEC50 (aromatase; [3]): 6.43
SMILES: CCCCN(c1ccc(F)cc1)C(C)c1cccnc1 (stereo not drawn) [N--butyl-N--(4-fluorophenyl)-α-methyl-3-pyridinemethanamine]

pEC50 (aromatase; [3]): 6.13
SMILES: CCCCN(Cc1ccc(Cl)cc1)c1cnccn1 [N--butyl-N--[(4-chlorophenyl)methyl]pyrazinamine]
